Consider 22 compounds from patent US10508085B2, “Compounds and methods for IDO and TDO modulation, and indications therefor” (Plexxikon Inc., priority 2016, dated 2019).

What is called IC50 is the midpoint of a concentration-inhibition curve.

Read-outs that look alike come from different tables or passages of the source.

Assay [1] concerns the target T1, human IDO (IDO1-expressing HEK293 cells) (Homo sapiens, UniProt P14902).
T1 construct: expressed in transfected cells
Nature of the assay: Cell based kynurenine assay, IDO1-expressing HEK293 cell clones. The note with it: IDO1-expressing HEK293 cells, geometric mean, read-out: HEK293 IDO1 Kynurenine GMean IC50 (μM) (Cellular Assay). In outline: (§1)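 Steps: seed IDO1- or TDO-expressing HEK293 cells at 2.5×10^4 per well; add compound dilutions; incubate 24 h; transfer supernatant and determine kynurenine; derive IC50 via nonlinear regression of percent inhibition.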

In assay [2] the target is T2, Human Indoleamine 2,3-dioxygenase (IDO) (Homo sapiens, UniProt P14902).
T2 construct: His tag (N); made in house; host or cells: E. coli
T2 sequence (P14902 whole entry): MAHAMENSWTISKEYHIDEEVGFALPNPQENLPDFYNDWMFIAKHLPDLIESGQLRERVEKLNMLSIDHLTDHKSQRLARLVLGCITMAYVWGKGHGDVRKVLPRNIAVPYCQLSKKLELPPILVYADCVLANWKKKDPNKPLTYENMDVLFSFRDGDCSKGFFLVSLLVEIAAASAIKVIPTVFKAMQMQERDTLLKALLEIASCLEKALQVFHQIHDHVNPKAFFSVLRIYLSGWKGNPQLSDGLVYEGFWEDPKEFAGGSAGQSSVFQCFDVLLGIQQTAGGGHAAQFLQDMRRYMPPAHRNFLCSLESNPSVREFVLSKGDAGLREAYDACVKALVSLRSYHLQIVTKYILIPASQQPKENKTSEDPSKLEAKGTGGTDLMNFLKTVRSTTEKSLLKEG
Description: Human IDO enzymatic assay (kynurenine level). The note with it: 6 nM IDO, 10 μM L-Trp; geometric mean; read-out: IDO1 GMean: IC50 (μM) (Biochemical Assay). The format is biochemical. In outline:
(§2)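 Reactions were stopped with TCA, converting N-formylkynurenine to kynurenine for quantitation, with IC50 by nonlinear regression. IDO: 6 nM enzyme, 10 μM L-Trp, 20 min RT. TDO: 1 nM enzyme, 350 μM L-Trp, 70 min RT, both in pH 6.5 buffer.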

Assay [3] concerns the target T3, Human Tryptophan 2,3-dioxygenase (TDO) (Homo sapiens, UniProt P48775).
T3 construct: His tag (N); made in house; host or cells: E. coli
Nature of the assay: Human TDO enzymatic assay (kynurenine level). It is filed as biochemical. The note with it: 1 nM TDO, 350 μM L-Trp; geometric mean; read-out: TDO GMean: IC50 (μM) (Biochemical Assay). In outline: as §2

Assay [4] addresses T4, human TDO (TDO-expressing HEK293 cells) (Homo sapiens, UniProt P48775).
T4 construct: expressed in transfected cells
Description: Cell based kynurenine assay, TDO-expressing HEK293 cell clones. The note with it: TDO-expressing HEK293 cells, geometric mean, read-out: HEK293 TDO Kynurenine GMean IC50 (μM) (Cellular Assay). In outline: as §1

T1 sequence (P14902 whole entry): as above
T4 sequence (P48775 whole entry): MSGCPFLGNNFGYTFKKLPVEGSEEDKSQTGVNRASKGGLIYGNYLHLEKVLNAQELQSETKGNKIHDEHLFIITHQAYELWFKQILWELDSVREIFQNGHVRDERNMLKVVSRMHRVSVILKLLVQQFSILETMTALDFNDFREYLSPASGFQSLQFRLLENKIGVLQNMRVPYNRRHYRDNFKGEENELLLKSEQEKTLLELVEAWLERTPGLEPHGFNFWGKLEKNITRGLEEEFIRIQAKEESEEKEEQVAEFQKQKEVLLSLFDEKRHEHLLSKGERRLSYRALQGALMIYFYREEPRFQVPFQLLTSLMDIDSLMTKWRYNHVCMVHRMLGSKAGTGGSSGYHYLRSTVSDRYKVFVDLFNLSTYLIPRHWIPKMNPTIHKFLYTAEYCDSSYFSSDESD
T3 sequence (P48775 whole entry): as above

As to `CC(C)(C)OC(=O)N1CCC(C(F)(F)[C@H](O)c2c3c(cc4cn[nH]c24)CC3)CC1` [Compound P-0527, tert-butyl (R)-4-(2-(5,6-dihydro-1H-cyclobuta[f]indazol-7-yl)-1,1-difluoro-2-hydroxyethyl) piperidine-1-carboxylate], the IC50 in assay [1] (24 hours) lay within 0.0001 to 10 µM; in assay [2], 0.0001 to 10 µM; in assay [3], 10 to 100 µM; in assay [4] (24 hours), 0.0001 to 10 µM.
For the compound `O=C(Cc1ccc(Cl)c(F)c1)N1CCC(C(F)(F)C(O)c2cc(Cl)cc3cn[nH]c23)CC1` (stereo not shown) [Compound P-0523, 1-(4-(2-(5-chloro-1H-indazol-7-yl)-1,1-difluoro-2-hydroxyethyl)piperidin-1-yl)-2-(4-chloro-3-fluorophenyl)ethan-1-one], the IC50 in assay [1] (24 hours), in assay [2], in assay [3] and in assay [4] (24 hours) was 0.0001 to 10 µM in each case.
Consider `CCNC(=O)N1CCC(C(C)(C)[C@@H](O)c2cc(Cl)cc3cn[nH]c23)CC1` [Compound P-0428, (R)-4-(1-(5-chloro-1H-indazol-7-yl)-1-hydroxy-2-methylpropan-2-yl)-N-ethylpiperidine-1-carboxamide], for which the IC50 in assay [1] (24 hours) is more than 10 µM; in assay [2], 0.0001 to 10 µM; in assay [3], 0.0001 to 10 µM; in assay [4] (24 hours) it was 0.0001 to 10 µM.
Turning to `CC1(C)CN(c2c(F)c(Cl)cc3cn[nH]c23)CCN1S(C)(=O)=O` [Compound P-0092, 5-chloro-7-(3,3-dimethyl-4-(methylsulfonyl)piperazin-1-yl)-6-fluoro-1H-indazole], the IC50 in assay [1] (24 hours incubation), in assay [2], in assay [3] and in assay [4] (24 hours incubation) was 0.0001 to 10 µM in each case.
Take `OC(c1cc(Cl)cc2cn[nH]c12)C1(C2CCCCC2)CC1` (stereo not shown) [Compound P-0187, (5-chloro-1H-indazol-7-yl)(1-cyclohexylcyclopropyl)methanol]: the half-maximal inhibitory concentration (IC50) in assay [1] (24 hours incubation), in assay [2], in assay [3] and in assay [4] (24 hours incubation) was 0.0001 to 10 µM throughout.
Regarding `O=C(c1c2c(cc3cn[nH]c13)CC2)C(F)(F)C1CCOCC1` [Compound P-0275, 1-(5,6-dihydro-1H-cyclobuta[f]indazol-7-yl)-2,2-difluoro-2-(tetrahydro-2H-pyran-4-yl)ethan-1-one], the half-maximal inhibitory concentration (IC50) in assay [1] (24 hours incubation), in assay [2], in assay [3] and in assay [4] (24 hours incubation) was 0.0001 to 10 µM throughout.
As for `CC(C)(C1CCN(C(=O)NC2CCNCC2)CC1)C(O)c1cc(Cl)cc2cn[nH]c12` (stereo not shown) [Compound P-0453, 4-(1-(5-chloro-1H-indazol-7-yl)-1-hydroxy-2-methylpropan-2-yl)-N-(piperidin-4-yl)piperidine-1-carboxamide], the half-inhibitory concentration (IC50) in assay [1] (24 hours) is more than 10 µM; in assay [2] it was 0.0001 to 10 µM; in assay [3], 0.0001 to 10 µM; in assay [4] (24 hours) it was more than 10 µM.
In the case of `CCC(=O)N1CCC(C(C)(C)C(O)c2c(F)c(Cl)cc3cn[nH]c23)CC1` (stereo not shown) [Compound P-0421, 1-(4-(1-(5-chloro-6-fluoro-1H-indazol-7-yl)-1-hydroxy-2-methylpropan-2-yl)piperidin-1-yl)propan-1-one], the IC50 in assay [1] (24 hours), in assay [2], in assay [3] and in assay [4] (24 hours) was 0.0001 to 10 µM throughout.
Consider `OCC1CCC(C(O)c2cc(Cl)cc3cn[nH]c23)CC1` (stereo not shown) [Compound P-0197, (5-chloro-1H-indazol-7-yl)(4-(hydroxymethyl)cyclohexyl)methanol], for which the IC50 in assay [1] (24 hours incubation), in assay [2], in assay [3] and in assay [4] (24 hours incubation) was 0.0001 to 10 µM each time.
As for `CC(C)(C1CCOCC1)C(O)c1cc(Cl)cc2[nH]ncc12` (stereo not shown) [Compound P-0174, 1-(6-chloro-1H-indazol-4-yl)-2-methyl-2-(tetrahydro-2H-pyran-4-yl)propan-1-ol], the 50% inhibitory concentration (IC50) in assay [1] (24 hours incubation), in assay [2], in assay [3] and in assay [4] (24 hours incubation) was 0.0001 to 10 µM each time.
Take `OC(c1cc(Cl)cc2cn[nH]c12)C(C1CCC1)C1CCC1` (stereo not shown) [Compound P-0203, 1-(5-chloro-1H-indazol-7-yl)-2,2-dicyclobutylethan-1-ol]: the IC50 in assay [1] (24 hours incubation), in assay [2], in assay [3] and in assay [4] (24 hours incubation) was 0.0001 to 10 µM each time.
On to `OC(c1cc(Cl)cc2cn[nH]c12)C1(C2CCOCC2)CC1` (stereo not shown) [Compound P-0221, (5-chloro-1H-indazol-7-yl)(1-(tetrahydro-2H-pyran-4-yl)cyclopropyl)methanol], for which the 50% inhibitory concentration (IC50) in assay [1] (24 hours incubation), in assay [2], in assay [3] and in assay [4] (24 hours incubation) was 0.0001 to 10 µM each time.
Turning to `Cc1cc(N2CCN(S(C)(=O)=O)C(C)(C)C2)c2[nH]ncc2c1` [Compound P-0090, 7-(3,3-dimethyl-4-(methylsulfonyl)piperazin-1-yl)-5-methyl-1H-indazole], the 50% inhibitory concentration (IC50) in assay [1] (24 hours incubation), in assay [2], in assay [3] and in assay [4] (24 hours incubation) was 0.0001 to 10 µM in each case.
On to `CC(C)(C1CCN(C(=O)c2ccc(N3CCOCC3)nc2)CC1)[C@H](O)c1cc(Cl)cc2cn[nH]c12` [Compound P-0538, (S)-(4-(1-(5-chloro-1H-indazol-7-yl)-1-hydroxy-2-methylpropan-2-yl)piperidin-1-yl)(6-morpholinopyridin-3-yl)methanone], for which the IC50 in assay [1] (24 hours), in assay [2], in assay [3] and in assay [4] (24 hours) was 0.0001 to 10 µM throughout.
Turning to `CC(C)CNC(=O)N1CCC(C(C)(C)[C@H](O)c2cc(Cl)cc3cn[nH]c23)CC1` [Compound P-0564, (S)-4-(1-(5-chloro-1H-indazol-7-yl)-1-hydroxy-2-methylpropan-2-yl)-N-isobutylpiperidine-1-carboxamide], the half-inhibitory concentration (IC50) in assay [1] (24 hours), in assay [2], in assay [3] and in assay [4] (24 hours) was 0.0001 to 10 µM throughout.
On to `C[C@H](NC(=O)N1CCC(C(C)(C)C(O)c2cc(Cl)cc3cn[nH]c23)CC1)c1ccccc1` (stereo partly drawn) [Compound P-0354, 4-(1-(5-chloro-1H-indazol-7-yl)-1-hydroxy-2-methylpropan-2-yl)-N-((S)-1-phenylethyl) piperidine-1-carboxamide], for which the IC50 in assay [1] (24 hours incubation), in assay [2], in assay [3] and in assay [4] (24 hours incubation) was 0.0001 to 10 µM in each case.
As to `O=C(C1CC1)N1CCC(C(F)(F)C(O)c2cc(Cl)cc3cn[nH]c23)CC1` (stereo not shown) [Compound P-0143, (4-(2-(5-chloro-1H-indazol-7-yl)-1,1-difluoro-2-hydroxyethyl)piperidin-1-yl)(cyclopropyl)methanone], the IC50 in assay [1] (24 hours incubation), in assay [2], in assay [3] and in assay [4] (24 hours incubation) was 0.0001 to 10 µM in each case.
In the case of `O=C(Cc1ccc(F)c(Cl)c1)N1CCC(C(F)(F)C(O)c2cc(Cl)cc3cn[nH]c23)CC1` (stereo not shown) [Compound P-0524, 1-(4-(2-(5-chloro-1H-indazol-7-yl)-1,1-difluoro-2-hydroxyethyl)piperidin-1-yl)-2-(3-chloro-4-fluorophenyl) ethan-1-one], the IC50 in assay [1] (24 hours), in assay [2], in assay [3] and in assay [4] (24 hours) was 0.0001 to 10 µM each time.
Take `CC(C)(C1CCN(C(=O)NCCC(F)(F)F)CC1)[C@H](O)c1cc(Cl)cc2cn[nH]c12` [Compound P-0561, (S)-4-(1-(5-chloro-1H-indazol-7-yl)-1-hydroxy-2-methylpropan-2-yl)-N-(3,3,3-trifluoropropyl) piperidine-1-carboxamide]: the IC50 in assay [1] (24 hours), in assay [2], in assay [3] and in assay [4] (24 hours) was 0.0001 to 10 µM throughout.
For `CC(C)C(=O)N1CCC(C(F)(F)C(O)c2cc(Cl)cc3cn[nH]c23)CC1` (stereo not shown) [Compound P-0351, 1-(4-(2-(5-chloro-1H-indazol-7-yl)-1,1-difluoro-2-hydroxyethyl)piperidin-1-yl)-2-methylpropan-1-one], the IC50 in assay [1] (24 hours incubation), in assay [2], in assay [3] and in assay [4] (24 hours incubation) was 0.0001 to 10 µM each time.
With `CC(C)(C1CCN(C(=O)Nc2ccc(C#N)nc2)CC1)C(O)c1cc(Cl)cc2cn[nH]c12` (stereo not shown) [Compound P-0570, 4-(1-(5-chloro-1H-indazol-7-yl)-1-hydroxy-2-methylpropan-2-yl)-N-(6-cyanopyridin-3-yl)piperidine-1-carboxamide], the IC50 in assay [1] (24 hours), in assay [2], in assay [3] and in assay [4] (24 hours) was 0.0001 to 10 µM in each case.
Consider `CC1(C(O)c2cc(Br)cc3cncn23)CCCCC1` (stereo not shown) [Compound P-0082, (7-bromoimidazo[1,5-a]pyridin-5-yl)(1-methylcyclohexyl)methanol], for which the 50% inhibitory concentration (IC50) in assay [1] (24 hours incubation), in assay [2], in assay [3] and in assay [4] (24 hours incubation) was 0.0001 to 10 µM throughout.
